Assay [1] deals with T1, human recombinant GABAAR containing α5β3γ2 subunits (benzodiazepine site) (Homo sapiens, UniProt P18507+P31644).
T1 construct: expressed in transfected cells; host or cells: mouse L(tk−) cells, dexamethasone-inducible vector pMSGneo
In words: In vitro radioligand binding assay (α5-GABAAR Ki). Conditions: inhibition of [3H]Ro15-1788 binding, membranes of L(tk−) cells expressing human α5β3γ2; read-out: α5-GABAAR Ki. The essentials: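 Displacement of 4 nM [^3H]flumazenil from the benzodiazepine site, read by filtration and scintillation, gave IC50, converted to Ki (Cheng-Prusoff, saturation-derived Kd). Receptor: human α5β3γ2 membranes from L(tk^−) cells, 50 μg protein/well; 1 h, 4° C; TP003 1 μM defined nonspecific binding.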

The target in assay [2] is T2, human α5β3γ2 GABAARs in mouse L(tk−) cells (Homo sapiens, UniProt P18507+P31644).
T2 construct: expressed in transfected cells; host or cells: mouse L(tk−) cells, dexamethasone-inducible vector pMSGneo
T2 sequence (P31644 32-462): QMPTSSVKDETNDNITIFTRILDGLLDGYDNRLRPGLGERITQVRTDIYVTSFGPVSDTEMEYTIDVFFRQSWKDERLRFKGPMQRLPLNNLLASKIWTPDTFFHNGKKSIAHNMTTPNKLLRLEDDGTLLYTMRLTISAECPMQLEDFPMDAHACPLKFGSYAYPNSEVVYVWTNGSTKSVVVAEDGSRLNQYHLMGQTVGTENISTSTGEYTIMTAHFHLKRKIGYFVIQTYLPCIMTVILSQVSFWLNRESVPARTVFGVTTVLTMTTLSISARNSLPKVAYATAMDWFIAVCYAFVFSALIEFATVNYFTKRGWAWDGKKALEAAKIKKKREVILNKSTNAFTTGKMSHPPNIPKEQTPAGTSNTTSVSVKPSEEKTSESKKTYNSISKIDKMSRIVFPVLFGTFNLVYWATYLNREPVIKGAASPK
T2 sequence (P28472 26-473 partner): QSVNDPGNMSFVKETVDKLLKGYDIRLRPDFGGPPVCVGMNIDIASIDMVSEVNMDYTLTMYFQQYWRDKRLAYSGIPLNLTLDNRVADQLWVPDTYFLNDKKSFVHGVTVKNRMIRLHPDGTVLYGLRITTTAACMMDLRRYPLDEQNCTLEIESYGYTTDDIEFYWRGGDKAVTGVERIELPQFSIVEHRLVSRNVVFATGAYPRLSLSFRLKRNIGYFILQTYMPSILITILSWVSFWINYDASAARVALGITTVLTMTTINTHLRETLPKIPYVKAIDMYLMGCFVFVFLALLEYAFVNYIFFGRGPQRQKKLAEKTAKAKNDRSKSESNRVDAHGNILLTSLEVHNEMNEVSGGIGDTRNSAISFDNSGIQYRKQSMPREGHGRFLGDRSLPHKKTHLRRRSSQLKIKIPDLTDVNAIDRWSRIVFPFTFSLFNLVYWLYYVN
T2 sequence (P18507 40-475): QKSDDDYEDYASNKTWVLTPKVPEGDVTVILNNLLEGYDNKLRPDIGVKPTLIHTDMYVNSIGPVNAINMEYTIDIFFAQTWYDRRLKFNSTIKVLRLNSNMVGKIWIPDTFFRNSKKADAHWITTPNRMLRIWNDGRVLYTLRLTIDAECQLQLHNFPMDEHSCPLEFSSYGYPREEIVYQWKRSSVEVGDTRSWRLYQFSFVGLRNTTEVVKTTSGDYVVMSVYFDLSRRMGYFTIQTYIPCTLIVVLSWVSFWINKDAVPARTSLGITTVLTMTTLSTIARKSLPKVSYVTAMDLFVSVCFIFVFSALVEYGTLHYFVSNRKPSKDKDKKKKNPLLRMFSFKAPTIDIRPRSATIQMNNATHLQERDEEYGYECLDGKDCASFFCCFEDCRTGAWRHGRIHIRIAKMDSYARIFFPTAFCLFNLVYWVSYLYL
As to the kind of experiment: In vitro electrophysiological recording assay (α5-GABAAR relative efficacy), QPatch. Particulars: GABA EC10-20. Format: cell-based. The essentials:
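Whole-cell QPatch recordings at 20-22° C, −65 mV holding, in dexamethasone-induced (1 μM, 24 h) L(tk−) cells. Compound pre-applied ≥1 min, then co-applied with GABA EC10-20; percentage change in leak-corrected peak current, taken at ≥100× Ki, normalised to DMCM efficacy; 0.1% DMSO final.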

pKi: −log10 of the molar value.

T1 sequence (P31644 32-462): as the sequence (P31644 32-462) above
T1 sequence (P28472 26-473 partner): as the sequence (P28472 26-473 partner) above
T1 sequence (P18507 40-475): as the sequence (P18507 40-475) above

As to `COCc1ncc(-c2ccc(NC(=O)c3c(-c4ccccc4)noc3C)c(OC)n2)cn1` [Example 125, N-[2-Methoxy-6-[2-(methoxymethyl)pyrimidin-5-yl]-3-pyridyl]-5-methyl-3-phenyl-isoxazole-4-carboxamide], the pKi in assay [1] is 8.60. In addition, in assay [2] (Conc 0.3 μM), the “α5-GABAAR Relative Efficacy (to DMCM), Qpatch” value (from here on “α5-GABAAR Relative Efficacy”) is reported as −0.84.
Turning to `COc1ccc(-c2ccc(NC(=O)c3c(-c4ccccc4)noc3C)c(OC)n2)nn1` [Example 128, N-[2-Methoxy-6-(6-methoxypyridazin-3-yl)-3-pyridyl]-5-methyl-3-phenyl-isoxazole-4-carboxamide], the pKi in assay [1] was 7.33. Further, in assay [2] (Conc 10 μM), the “α5-GABAAR Relative Efficacy” value is recorded as −0.19.
For the compound `COc1nc(-c2cnc(C(=O)N(C)C)nc2)ccc1NC(=O)c1c(-c2ccccc2)noc1C` [Example 130, N-[6-[2-(Dimethylcarbamoyl)pyrimidin-5-yl]-2-methoxy-3-pyridyl]-5-methyl-3-phenyl-isoxazole-4-carboxamide], the negative-log Ki (pKi) in assay [1] was 8.64. Further, the “α5-GABAAR Relative Efficacy” value in assay [2] (Conc 0.3 μM) is given as −0.55.
Consider `COc1nc(-c2ccn3nc(N(C)C)nc3c2)ccc1NC(=O)c1c(-c2ccccc2)noc1C.Cl` [Example 131, N-[6-[2-(Dimethylamino)-[1,2,4]triazolo[1,5-a]pyridin-7-yl]-2-methoxy-3-pyridyl]-5-methyl-3-phenyl-isoxazole-4-carboxamide hydrochloride], for which, in assay [1], the negative-log Ki (pKi) was 8.01. Also, the “α5-GABAAR Relative Efficacy” value in assay [2] (Conc 1 μM) is on record as −0.67.
Consider `COc1nc(-c2cncn2C)ccc1NC(=O)c1c(-c2ccccc2)noc1C` [Example 132, N-[2-Methoxy-6-(3-methylimidazol-4-yl)-3-pyridyl]-5-methyl-3-phenyl-isoxazole-4-carboxamide], for which the pKi in assay [1] is 8.40. Further, the “α5-GABAAR Relative Efficacy” value in assay [2] (Conc 1 μM) is given as −0.52.
On the same counts, the results for `COc1nc(-c2c[nH]c(=O)c(F)c2)cnc1NC(=O)c1c(-c2ccccc2)noc1C` [Example 133, N-[5-(5-Fluoro-6-oxo-1H-pyridin-3-yl)-3-methoxy-pyrazin-2-yl]-5-methyl-3-phenyl-isoxazole-4-carboxamide] are 8.39 and −0.75.
Take `COc1nc(-c2cnc3cnccn23)ccc1NC(=O)c1c(-c2ccccc2)noc1C` [Example 135, N-(6-(Imidazo[1,2-a]pyrazin-3-yl)-2-methoxypyridin-3-yl)-5-methyl-3-phenylisoxazole-4-carboxamide]: in assay [1], the pKi is 9.00. Moreover, the “α5-GABAAR Relative Efficacy” value in assay [2] (Conc 0.3 μM) is −0.85.
Consider `COc1nc(-c2cnc3ncccn23)ccc1NC(=O)c1c(-c2ccccc2)noc1C` [Example 136, N-(6-(Imidazo[1,2-a]pyrimidin-3-yl)-2-methoxypyridin-3-yl)-5-methyl-3-phenylisoxazole-4-carboxamide], for which the pKi in assay [1] is 8.48. In assay [2] (Conc 1 μM), the “α5-GABAAR Relative Efficacy” value was −0.60.
As to `COc1nc(-c2cnc3n2CCNC3)ccc1NC(=O)c1c(-c2ccccc2)noc1C.Cl` [Example 138, N-(2-Methoxy-6-(5,6,7,8-tetrahydroimidazo[1,2-a]pyrazin-3-yl)pyridin-3-yl)-5-methyl-3-phenylisoxazole-4-carboxamide hydrochloride], the pKi in assay [1] was 8.49. In addition, the “α5-GABAAR Relative Efficacy” value in assay [2] (Conc 1 μM) is given as −0.62.
As for `COc1nc(-n2cnc(C#N)c2)ccc1NC(=O)c1c(-c2ccccc2)noc1C` [Example 139, N-[6-(4-Cyanoimidazol-1-yl)-2-methoxy-3-pyridyl]-5-methyl-3-phenyl-isoxazole-4-carboxamide], the pKi in assay [1] is 8.72. In addition, in assay [2] (Conc 0.3 μM), the “α5-GABAAR Relative Efficacy” value was −0.90.
With `COc1nc(-n2cnc(C(F)(F)F)c2)ccc1NC(=O)c1c(-c2ccccc2)noc1C` [Example 140, N-[2-Methoxy-6-[4-(trifluoromethyl)imidazol-1-yl]-3-pyridyl]-5-methyl-3-phenyl-isoxazole-4-carboxamide], the pKi in assay [1] is 8.24. Moreover, in assay [2] (Conc 1 μM), the “α5-GABAAR Relative Efficacy” value is on record as −0.79.
As for `CCOc1ncc(-c2cnc(NC(=O)c3c(-c4ccccc4)noc3C)c(OC)n2)cn1` [Example 142, N-[5-(2-Ethoxypyrimidin-5-yl)-3-methoxy-pyrazin-2-yl]-5-methyl-3-phenyl-isoxazole-4-carboxamide], the pKi in assay [1] is 8.54. Moreover, the “α5-GABAAR Relative Efficacy” value in assay [2] (Conc 0.3 μM) is given as −0.85.
In the case of `CNc1ncc(-c2cnc(NC(=O)c3c(-c4ccccc4)noc3C)c(OC)n2)cn1` [Example 145, N-[3-Methoxy-5-[2-(methylamino)pyrimidin-5-yl]pyrazin-2-yl]-5-methyl-3-phenyl-isoxazole-4-carboxamide], the pKi in assay [1] is 9.52. In addition, the “α5-GABAAR Relative Efficacy” value in assay [2] (Conc 0.1 μM) is −1.12.
On the same counts, the results for `COc1nc(-c2ccc(NC(C)=O)nc2)cnc1NC(=O)c1c(-c2ccccc2)noc1C` [Example 147, N-[5-(6-Acetamido-3-pyridyl)-3-methoxy-pyrazin-2-yl]-5-methyl-3-phenyl-isoxazole-4-carboxamide] are 9.30 and −0.67.
As to `COc1nc(-c2ccc(CO)nc2)cnc1NC(=O)c1c(-c2ccccc2)noc1C` [Example 148, N-[5-[6-(Hydroxymethyl)-3-pyridyl]-3-methoxy-pyrazin-2-yl]-5-methyl-3-phenyl-isoxazole-4-carboxamide], the pKi in assay [1] was 8.92. Also, in assay [2] (Conc 0.3 μM), the “α5-GABAAR Relative Efficacy” value is given as −0.80.
For the compound `COc1nc(-c2ccc(=O)n(C)c2)cnc1NC(=O)c1c(-c2ccccc2)noc1C` [Example 149, N-[3-Methoxy-5-(1-methyl-6-oxo-3-pyridyl)pyrazin-2-yl]-5-methyl-3-phenyl-isoxazole-4-carboxamide], the pKi in assay [1] is 8.28. In addition, the “α5-GABAAR Relative Efficacy” value in assay [2] (Conc 1 μM) is given as −0.66.
The corresponding values for `COc1nc(-c2cnc(N)cn2)cnc1NC(=O)c1c(-c2ccccc2)noc1C` [Example 150, N-[5-(5-Aminopyrazin-2-yl)-3-methoxy-pyrazin-2-yl]-5-methyl-3-phenyl-isoxazole-4-carboxamide] are 8.29 and −0.83.
For `COc1nc(-n2ccnc2)ccc1NC(=O)c1c(C)nnn1-c1ccccc1` [Example 151, N-(6-(1H-Imidazol-1-yl)-2-methoxypyridin-3-yl)-4-methyl-1-phenyl-1H-1,2,3-triazole-5-carboxamide], the pKi in assay [1] is 7.35. Moreover, the “α5-GABAAR Relative Efficacy” value in assay [2] (Conc 3 μM) is −0.89.
With `COc1nc(-n2cnc(CN(C)C)c2)ccc1NC(=O)c1c(-c2ccccc2)noc1C` [Example 152, N-[6-[4-[(Dimethylamino)methyl]imidazol-1-yl]-2-methoxy-3-pyridyl]-5-methyl-3-phenyl-isoxazole-4-carboxamide], in assay [1], the pKi was 7.64. For the same compound, the “α5-GABAAR Relative Efficacy” value in assay [2] (Conc 3 μM) is recorded as −0.27.
In the case of `COc1nc(-n2cncc2CN(C)C)ccc1NC(=O)c1c(-c2ccccc2)noc1C` [Example 153, N-[6-[5-[(Dimethylamino)methyl]imidazol-1-yl]-2-methoxy-3-pyridyl]-5-methyl-3-phenyl-isoxazole-4-carboxamide], the pKi in assay [1] was 8.77. For the same compound, the “α5-GABAAR Relative Efficacy” value in assay [2] (Conc 0.3 μM) is given as −0.83.
Take `COc1nc(-n2ccnc2)ccc1NC(=O)c1c(-c2ccccc2)nnn1C` [Example 154, N-(6-(1H-Imidazol-1-yl)-2-methoxypyridin-3-yl)-1-methyl-4-phenyl-1H-1,2,3-triazole-5-carboxamide]: in assay [1], the pKi is 7.60. For the same compound, in assay [2] (Conc 3 μM), the “α5-GABAAR Relative Efficacy” value is on record as −0.89.
In the case of `COc1nc(-c2cnc3n2CCOC3)cnc1NC(=O)c1c(-c2ccccc2)noc1C` [Example 155, N-[5-(6,8-Dihydro-5H-imidazo[2,1-c][1,4]oxazin-3-yl)-3-methoxy-pyrazin-2-yl]-5-methyl-3-phenyl-isoxazole-4-carboxamide], the pKi in assay [1] was 8.64. Also, the “α5-GABAAR Relative Efficacy” value in assay [2] (Conc 0.3 μM) is recorded as −0.91.
As for `COc1nc(-c2ccc(CO)nc2)ccc1NC(=O)c1c(C)nnn1-c1ccccc1` [Example 160, N-(6′-(Hydroxymethyl)-6-methoxy-[2,3′-bipyridin]-5-yl)-4-methyl-1-phenyl-1H-1,2,3-triazole-5-carboxamide], the pKi in assay [1] was 7.55. In assay [2] (Conc 3 μM), the “α5-GABAAR Relative Efficacy” value is given as −0.77.
For the compound `COc1nc(-c2cnc(CN(C)C)nc2)ccc1NC(=O)c1c(C)nnn1-c1ccccc1` [Example 161, N-(6-(2-((Dimethylamino)methyl)pyrimidin-5-yl)-2-methoxypyridin-3-yl)-4-methyl-1-phenyl-1H-1,2,3-triazole-5-carboxamide], the pKi in assay [1] was 7.21. In addition, the “α5-GABAAR Relative Efficacy” value in assay [2] (Conc 10 μM) was −0.71.
In the case of `CCOc1ncc(-c2ccc(NC(=O)c3c(C)nnn3-c3ccccc3)c(OC)n2)cn1` [Example 162, N-(6-(2-Ethoxypyrimidin-5-yl)-2-methoxypyridin-3-yl)-4-methyl-1-phenyl-1H-1,2,3-triazole-5-carboxamide], the pKi in assay [1] was 7.47. For the same compound, the “α5-GABAAR Relative Efficacy” value in assay [2] (Conc 3 μM) was −0.90.
Take `COc1nc(-c2cnc(OCCN(C)C)nc2)ccc1NC(=O)c1c(-c2ccccc2)noc1C` [Example 163, N-[6-[2-[2-(Dimethylamino)ethoxy]pyrimidin-5-yl]-2-methoxy-3-pyridyl]-5-methyl-3-phenyl-isoxazole-4-carboxamide]: the pKi in assay [1] is 8.39. Moreover, in assay [2] (Conc 1 μM), the “α5-GABAAR Relative Efficacy” value was −1.11.

The values above are taken from patent US20240425491A1, “HETEROARYL COMPOUNDS USEFUL IN THE TREATMENT OF COGNITIVE DISORDERS” (University College Cardiff Consultants Limited, priority 2021, published 2024).
